Experimental data taken from ChEMBL document CHEMBL3638618, “Uracil compound or salt thereof having human deoxyuridine triphosphatase inhibitory activity” (2013).

Biological target: T1, Deoxyuridine 5'-triphosphate nucleotidohydrolase, mitochondrial (Homo sapiens, UniProt P33316)
T1 sequence (P33316 whole entry): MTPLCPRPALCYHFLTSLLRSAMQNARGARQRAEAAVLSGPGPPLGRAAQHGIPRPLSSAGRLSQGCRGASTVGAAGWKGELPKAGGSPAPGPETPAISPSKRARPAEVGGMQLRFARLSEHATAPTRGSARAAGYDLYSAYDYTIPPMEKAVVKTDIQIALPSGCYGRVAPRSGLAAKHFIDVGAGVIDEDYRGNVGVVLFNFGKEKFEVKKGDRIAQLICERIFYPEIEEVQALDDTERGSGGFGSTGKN
Test: Inhibition Assay: The inhibitory activity of the compound against human dUTPase was determined by measuring the production of [5-3H]deoxyuridine monophosphate from [5-3H]deoxyuridine triphosphate.

IC50: 410 nM
SMILES: C[C@@H](NS(=O)(=O)CCCOCn1ccc(=O)[nH]c1=O)c1cccc(OCCF)c1
